Measurements: patent publication US12043599B2, “Herbicidal compounds” (SYNGENTA PARTICIPATIONS AG, priority 2018, dated 2024)

Legend:
Assay type in all cases: in vivo
Details in all cases: 250 g/h, evaluated after 13 days
[1] = tested on: Alopecurus myosuroides (ALOMY); assay: Pre-emergence herbicidal glasshouse test, percentage damage
In short: (§1)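 Pots of the weeds sprayed either 1 day after sowing (pre-emergence) or after 8 days' growth (post-emergence), at 250 g/h in acetone/water with 0.5% Tween 20. Grown in a glasshouse at 24/16° C. day/night with 14 h light and 65% humidity. Damage scored 13 days later on a 1–5 scale (5=80-100%, 1=0-19%).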

[2] = tested on: Avena fatua (AVEFA); assay: as above
In short: as §1

[3] = tested on: Echinochloa crus-galli (ECHCG); assay: as above
In short: as §1

[4] = tested on: Lolium perenne (LOLPE); assay: as above
In short: as §1

[5] = tested on: Setaria faberi (SETFA); assay: as above
In short: as §1

[6] = tested on: Setaria faberi (SETFA); assay: Post-emergence herbicidal glasshouse test, percentage damage
In short: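 Wheat, barley and Setaria faberi were sprayed post-emergence after 8 days' growth (24/16 °C, 14 h light, 65% humidity) with compound in acetone/water (50:50) containing 0.5% Tween 20, at the indicated rates. On wheat, compounds were also applied with cloquintocet-mexyl at 50 g/ha. Damage was scored after 13 days on a five-point scale (5=80-100% to 1=0-19%).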

[7] = tested on: Alopecurus myosuroides (ALOMY); assay: as above
In short: as §1

[8] = tested on: Avena fatua (AVEFA); assay: as above
In short: as §1

[9] = tested on: Echinochloa crus-galli (ECHCG); assay: as above
In short: as §1

[10] = tested on: Lolium perenne (LOLPE); assay: as above
In short: as §1

| Structure (SMILES) | ALOMY PRE percentage damage (five point scale) [1] | AVEFA PRE percentage damage (five point scale) [2] | ECHCG PRE percentage damage (five point scale) [3] | LOLPE PRE percentage damage (five point scale) [4] | SETFA PRE percentage damage (five point scale) [5] | SETFA POST percentage damage (five point scale) [6] | ALOMY POST percentage damage (five point scale) [7] | AVEFA POST percentage damage (five point scale) [8] | ECHCG POST percentage damage (five point scale) [9] | LOLPE POST percentage damage (five point scale) [10] |
| --- | --- | --- | --- | --- | --- | --- | --- | --- | --- | --- |
| CC#Cc1cc(C)c(C2C(=O)CC3(CCN(C(=O)[C@H](C)OC)CC3)CC2=O)c(C)c1 [Compound A153] | 5 (5=80-100%) | 5 (5=80-100%) | 5 (5=80-100%) | 5 (5=80-100%) | 5 (5=80-100%) | 5 (5=80-100%) | 5 (5=80-100%) | 5 (5=80-100%) | 5 (5=80-100%) | 5 (5=80-100%) |
| CC#Cc1cc(C)c(C2C(=O)CC3(CCN(C(=O)[C@@H](C)OC)CC3)CC2=O)c(C)c1 [Compound A154] | 5 (5=80-100%) | 5 (5=80-100%) | 5 (5=80-100%) | 5 (5=80-100%) | 5 (5=80-100%) | 5 (5=80-100%) | 5 (5=80-100%) | 5 (5=80-100%) | 5 (5=80-100%) | 5 (5=80-100%) |
| CC#Cc1cc(C)c(C2C(=O)CC3(CCN(C(=O)[C@H](C)O)CC3)CC2=O)c(C)c1 [Compound A155] | 5 (5=80-100%) | 5 (5=80-100%) | 5 (5=80-100%) | 5 (5=80-100%) | 5 (5=80-100%) | 5 (5=80-100%) | 5 (5=80-100%) | 5 (5=80-100%) | 5 (5=80-100%) | 5 (5=80-100%) |
| CC#Cc1cc(C)c(C2C(=O)CC3(CCN(C(=O)[C@@H](C)O)CC3)CC2=O)c(C)c1 [Compound A156] | 5 (5=80-100%) | 5 (5=80-100%) | 5 (5=80-100%) | 5 (5=80-100%) | 5 (5=80-100%) | 5 (5=80-100%) | 5 (5=80-100%) | 5 (5=80-100%) | 5 (5=80-100%) | 5 (5=80-100%) |
| CC#Cc1cc(C)c(C2C(=O)CC3(CCN(C(=O)NC(=O)c4ccc(F)cn4)CC3)CC2=O)c(C)c1 [Compound A157] | 3 (3=40-59%) | 2 (2=20-39%) | 5 (5=80-100%) | 5 (5=80-100%) | 5 (5=80-100%) | 5 (5=80-100%) | 5 (5=80-100%) | 5 (5=80-100%) | 5 (5=80-100%) | 5 (5=80-100%) |
| CC#Cc1cc(C)c(C2C(=O)CC3(CCN(C(=O)NC(=O)c4ncc(C(F)(F)F)cc4Cl)CC3)CC2=O)c(C)c1 [Compound A158] | 2 (2=20-39%) | 2 (2=20-39%) | 5 (5=80-100%) | 3 (3=40-59%) | 5 (5=80-100%) | 5 (5=80-100%) | 3 (3=40-59%) | 5 (5=80-100%) | 5 (5=80-100%) | 5 (5=80-100%) |
| CC#Cc1cc(C)c(C2C(=O)CC3(CCN(C(=O)NC(=O)c4cccc(F)n4)CC3)CC2=O)c(C)c1 [Compound A159] | 5 (5=80-100%) | 5 (5=80-100%) | 5 (5=80-100%) | 5 (5=80-100%) | 5 (5=80-100%) | 5 (5=80-100%) | 5 (5=80-100%) | 5 (5=80-100%) | 5 (5=80-100%) | 5 (5=80-100%) |
| CC#Cc1cc(C)c(C2C(=O)CC3(CCN(C(=O)NC(=O)c4ccc(C#N)cn4)CC3)CC2=O)c(C)c1 [Compound A160] | 2 (2=20-39%) | 4 (4=60-79%) | 4 (4=60-79%) | 3 (3=40-59%) | 5 (5=80-100%) | 5 (5=80-100%) | 4 (4=60-79%) | 5 (5=80-100%) | 4 (4=60-79%) | 5 (5=80-100%) |
| CC#Cc1cc(C)c(C2C(=O)CC3(CCN(C(=O)NC(=O)c4ccc(Cl)cn4)CC3)CC2=O)c(C)c1 [Compound A162] | 5 (5=80-100%) | 5 (5=80-100%) | 5 (5=80-100%) | 5 (5=80-100%) | 5 (5=80-100%) | 5 (5=80-100%) | 5 (5=80-100%) | 5 (5=80-100%) | 5 (5=80-100%) | 5 (5=80-100%) |
